The subject of the data set is GENE-TOX genotoxicity assays, various organisms and cells. The data set can be described thus: GENE-TOX mutagenicity studies. Particulars: for call: Assay Type: In vivo carcinogenicity studies.
Where [1] appears, read: Species/Cell Type: Bacillus subtilis (H17 vs M45), Assay Type: Rec-assay, spot test, DNA effects (bacterial DNA repair), Assay Code: REW+, Evaluation Type: Evaluation A (Pre-1980).
Setting [2] is: Species/Cell Type: Nonhuman, Assay Code: CCG+, Evaluation Type: Evaluation A (Pre-1980).
The mark [3] stands for this setting: Species/Cell Type: Salmonella typhimurium (one or more of the five standard strains: TA98, TA100, TA1535, TA1537, and TA1538), Assay Type: Histidine reverse gene mutation, Ames assay, Assay Code: SALT, Evaluation Type: Evaluation A (Pre-1980).
Setting [4] is: Species/Cell Type: Human lymphocytes, Assay Type: Sister-chromatid exchange (SCE) in vitro, Assay Code: SCLT, Evaluation Type: Evaluation B (Post-1980).
Where [5] appears, read: Species/Cell Type: Human, Assay Type: Sister-chromatid exchange (SCE) in vitro, Assay Code: SC1T, Evaluation Type: Evaluation B (Post-1980).
[6] abbreviates: Species/Cell Type: Fischer rat embryo (RLV/1706) cells, Assay Type: Cell transformation, viral enhanced, Assay Code: CTR+, Evaluation Type: Evaluation A (Pre-1980).
The mark [7] stands for this setting: Species/Cell Type: Mammalian polychromatic erythrocytes, Assay Type: Micronucleus test, chromosome aberrations, Assay Code: MNT+, Evaluation Type: Evaluation B (Post-1980).
Setting [8] is: Species/Cell Type: Salmonella typhimurium (one or more of the five standard strains: TA98, TA100, TA1535, TA1537, and TA1538), Assay Type: Histidine reverse gene mutation, Ames assay, Assay Code: SAL+*, Activation: With metabolic activation, Evaluation Type: Evaluation A (Pre-1980).
Setting [9] is: Species/Cell Type: Nonhuman, Assay Code: CCG+L, Evaluation Type: Evaluation A (Pre-1980).

Structures are written as SMILES. The source made the active and inactive calls. The rule behind the calls is not given here.

With `CN(C)N=Nc1ccc(O)cc1`, the mutagenic call was “no conclusion” (Species/Cell Type: Drosophila melanogaster, Assay Type: Sex-linked recessive lethal gene mutation, Assay Code: SRLT, Evaluation Type: Evaluation A (Pre-1980)) and “inactive; positive without activation, negative with activation” (Species/Cell Type: Saccharomyces cerevisiae, Assay Type: Mitotic recombination or gene conversion, Assay Code: YEC+/-*, Activation: With metabolic activation, Evaluation Type: Evaluation A (Pre-1980)).

As for `O=[As](=O)O[As](=O)=O`, the mutagenic call reads like this: under setting [1], “active; positive”; (Species/Cell Type: Nonhuman, Assay Type: Sister-chromatid exchange (SCE) in vitro, Assay Code: SC2+, Evaluation Type: Evaluation B (Post-1980)) “active; positive”.

For `CCCCN(N=O)C(=O)OCC`, the call under setting [2] was “active; positive”. Also, for the setting “Species/Cell Type: Nonhuman, Assay Type: Sister-chromatid exchange (SCE) in vitro, Assay Code: SC2+, Evaluation Type: Evaluation A (Pre-1980)”, the mutagenic call was “active; positive”.

As to `Oc1c(Cl)cc(Cl)c2cccnc12`, under setting [3], the mutagenic call is reported as “no conclusion”.

Consider `CC1=C2C(=CO[C@H](C)[C@H]2C)C(=O)C(C(=O)O)=C1O`, for which the mutagenic call under setting [1] is “active; positive” and the mutagenic call (Species/Cell Type: Saccharomyces cerevisiae, Assay Type: Mitotic recombination or gene conversion, Assay Code: YEH-, Evaluation Type: Evaluation A (Pre-1980)) is “inactive; negative”.

Turning to `CC(C)CCC[C@@H](C)[C@H]1CC[C@H]2[C@@H]3CC=C4C[C@@H](OC(=O)Cc5ccc(N(CCCl)CCCl)cc5)CC[C@]4(C)[C@H]3CC[C@]12C`, the call under setting [2] is “active; positive”.

On to `O=[N+]([O-])[O-].O=[N+]([O-])[O-].[Mn+2]`, for which the mutagenic call under setting [1] is “active; positive”.

`CCNC(=O)/C=C(C)/C=C/C=C(C)/C=C/c1c(C)cc(OC)c(C)c1C`: under “Species/Cell Type: Mouse (C3H/10T1/2) cells, Assay Type: Cell transformation, Assay Code: CTH-, Evaluation Type: Evaluation A (Pre-1980)”, the mutagenic call is “inactive; negative”.

With `NC1CCSC1=O` (stereo unspecified), the mutagenic call under setting [4] is recorded as “no conclusion” and the mutagenic call under setting [5] was “no conclusion”.

For `c1ccc2c(c1)ccc1nc3c(ccc4ccccc43)cc12`, under setting [6], the mutagenic call is “active; positive”. Besides, the call under setting [2] is “active; positive”.

As for `Cc1ccc2ccc3c(C)c4ccccc4c(C)c3c2c1`, for the setting “Species/Cell Type: Chinese hamster lung (V79) cells, Assay Type: Forward gene mutation at the HPRT or ouabain locus, Assay Code: V79-*, Activation: With metabolic activation, Evaluation Type: Evaluation A (Pre-1980)”, the mutagenic call was “inactive; negative”.

In the case of `CN(C)c1ccc(N=Nc2ccccc2C(=O)O)cc1`, the mutagenic call runs as follows: under setting [1], “active; positive”; under setting [3], “no conclusion”.

As to `CON(C)C(=O)Nc1ccc(Cl)c(Cl)c1`, the mutagenic call runs as follows: (Species/Cell Type: Hordeum vulgare (barley), Assay Type: Chromosome aberrations, Assay Code: HOC+, Evaluation Type: Evaluation A (Pre-1980)) “active; positive”; under setting [3], “no conclusion”; (Species/Cell Type: Vicia faba, Assay Type: Chromosome aberrations, Assay Code: VIC+, Evaluation Type: Evaluation A (Pre-1980)) “active; positive”.

As for `Nc1ccc(/C=C/c2ccc([N+](=O)[O-])o2)nn1`, the mutagenic call (Species/Cell Type: Glycine max (soybean), Assay Type: Gene mutation, Assay Code: GLM+, Evaluation Type: Evaluation A (Pre-1980)) was “active; positive”; the mutagenic call (Species/Cell Type: Human lymphocytes, Assay Type: Sister-chromatid exchange (SCE) in vitro, Assay Code: SCL+, Evaluation Type: Evaluation B (Post-1980)) is “active; positive”; the mutagenic call (Species/Cell Type: Human lymphocytes, Assay Type: Sister-chromatid exchange (SCE) in vitro, Assay Code: SCL+D, Dose Response: With dose response, Evaluation Type: Evaluation A (Pre-1980)) is “active; positive”; the mutagenic call (Species/Cell Type: Human, Assay Type: Sister-chromatid exchange (SCE) in vitro, Assay Code: SC1+, Evaluation Type: Evaluation B (Post-1980)) is “active; positive”; the mutagenic call (Species/Cell Type: Human, Assay Type: Sister-chromatid exchange (SCE) in vitro, Assay Code: SC1+D, Dose Response: With dose response, Evaluation Type: Evaluation A (Pre-1980)) is “active; positive”; the mutagenic call (Species/Cell Type: Saccharomyces cerevisiae, Assay Type: Forward and reverse gene mutation, mitotic recombination and gene conversion, DNA effects, body fluid assay, Assay Code: BFC+, Evaluation Type: Evaluation A (Pre-1980)) is “active; positive”. Moreover, the mutagenic call is “inactive; negative” (Species/Cell Type: Saccharomyces cerevisiae, Assay Type: Forward and reverse gene mutation, mitotic recombination and gene conversion, host-mediated assay, Assay Code: HME-, Evaluation Type: Evaluation A (Pre-1980)); “active; positive” (Species/Cell Type: Saccharomyces cerevisiae, Assay Type: Mitotic recombination or gene conversion, Assay Code: YEC+, Evaluation Type: Evaluation A (Pre-1980)); “active; positive” (Species/Cell Type: Saccharomyces cerevisiae, Assay Type: Mitotic recombination or gene conversion, Assay Code: YEH+, Evaluation Type: Evaluation A (Pre-1980)).

With `O=C(Cn1ccnc1[N+](=O)[O-])NCc1ccccc1`, the mutagenic call under setting [7] was “active; positive”.

Regarding `CCNP(=O)(N1CC1)N1CC1`, the mutagenic call by setting is: (Species/Cell Type: Nonhuman bone marrow, Assay Type: Chromosome aberrations, in vivo, Assay Code: CY#+, Evaluation Type: Evaluation A (Pre-1980)) “active; positive”; (Species/Cell Type: Nonhuman, Assay Type: Chromosome aberrations in vitro, Assay Code: CY&+, Evaluation Type: Evaluation A (Pre-1980)) “active; positive”; (Species/Cell Type: Schizosaccharomyces pombe, Assay Type: Reverse gene mutation, Assay Code: YEZ+, Evaluation Type: Evaluation A (Pre-1980)) “active; positive”.

Regarding `Cc1c(N)nc(C)c2c1[nH]c1ccccc12`, the mutagenic call (Species/Cell Type: Human lymphocytes, Assay Type: Sister-chromatid exchange (SCE) in vitro, Assay Code: SCL+D, Dose Response: With dose response, Evaluation Type: Evaluation B (Post-1980)) was “active; positive”; the mutagenic call (Species/Cell Type: Human, Assay Type: Sister-chromatid exchange (SCE) in vitro, Assay Code: SC1+D, Dose Response: With dose response, Evaluation Type: Evaluation B (Post-1980)) was “active; positive”; the mutagenic call under setting [8] was “active; positive”; the mutagenic call (Species/Cell Type: Syrian hamster embryo (SHE) cells, Assay Type: Cell transformation, clonal assay, Assay Code: CTC+, Evaluation Type: Evaluation A (Pre-1980)) was “active; positive”. Further, under setting [2], the call was “active; positive”.

`CCCCN(CCC)N=O`: under setting [8], the mutagenic call is “active; positive”.

As to `O[C@@H]1C=Cc2c(ccc3cc4ccccc4cc23)[C@H]1O`, the mutagenic call (Species/Cell Type: Chinese hamster lung (V79) cells, Assay Type: Forward gene mutation at the HPRT or ouabain locus, Assay Code: V79+, Evaluation Type: Evaluation A (Pre-1980)) is “active; positive”; the mutagenic call (Species/Cell Type: Nonhuman, Assay Type: Sister-chromatid exchange (SCE) in vitro, Assay Code: SC2+D, Dose Response: With dose response, Evaluation Type: Evaluation B (Post-1980)) is “active; positive”; the mutagenic call under setting [8] is “active; positive”. Moreover, the call under setting [9] was “active; positive”.

Regarding `Nc1ccc(O)c([N+](=O)[O-])c1`, the mutagenic call is, setting by setting: under setting [6], “active; positive”; (Species/Cell Type: Rodents, Sex: Male, Assay Type: Dominant lethal test, Assay Code: DLT-, Evaluation Type: Evaluation A (Pre-1980)) “inactive; negative”. In addition, the call under setting [9] is “active; positive”.

Take `O=C(O)c1ccc([N+](=O)[O-])o1`: the mutagenic call is “inactive; negative” (Species/Cell Type: Bacillus subtilis (H17 vs M45T), Assay Type: Rec-assay, spot test, DNA effects (bacterial DNA repair), Assay Code: REX-, Evaluation Type: Evaluation A (Pre-1980)); “inactive; negative” (Species/Cell Type: Escherichia coli WP2, Assay Type: Tryptophan reverse gene mutation, Assay Code: WP2-, Evaluation Type: Evaluation A (Pre-1980)); “inactive; negative” (Species/Cell Type: Escherichia coli WP2 UVRA, Assay Type: Tryptophan reverse gene mutation, Assay Code: WPU-, Evaluation Type: Evaluation A (Pre-1980)); “active; positive” (Species/Cell Type: Salmonella typhimurium (one or more of the five standard strains: TA98, TA100, TA1535, TA1537, and TA1538), Assay Type: Histidine reverse gene mutation, Ames assay, Assay Code: SAL+, Evaluation Type: Evaluation A (Pre-1980)).

Turning to `Clc1cccc(Cl)c1Cl`, under setting [7], the mutagenic call is “active; positive”.

As for `COc1cc([C@@H]2c3cc4c(cc3[C@H](O)[C@H]3COC(=O)[C@H]23)OCO4)cc(OC)c1OC`, the mutagenic call (Species/Cell Type: Chinese hamster ovary (CHO) cells, Assay Type: Forward gene mutation at the HPRT locus, Assay Code: CHOT, Evaluation Type: Evaluation B (Post-1980)) was “no conclusion”.

`Cn1c(=O)c2c(ncn2CC(O)CO)n(C)c1=O` (stereo unspecified): the mutagenic call under setting [4] is on record as “no conclusion” and the mutagenic call under setting [5] is “no conclusion”.
